We go through eight molecules from patent US10463656B2, “Methods and compositions for prevention of feedlot bovine respiratory disease” (Iowa State University Research Foundation, Inc., priority 2017, dated 2019).

“Also recorded” adds a separate entry of the source.

For one series, the target named is T1, Bovine PAFR (Bos taurus, UniProt Q9TTY5).
T1 construct: expressed in transfected cells; host or cells: BHK cells, transient transfection with lipofectamine, pcDNA3.3-PAFR
Kind of series: PAF-mediated intracellular calcium accumulation in BHK cells transiently expressing bovine PAFR. The class given is cell-based. Conditions: 10 nM PAF, transfected BHK cells; for block of bovine PAFR function, PAF-mediated intracellular calcium accumulation (FIG. 11): antagonist 1-100 nM; for block of bovine PAFR function by antihistamines, PAF-mediated intracellular calcium accumulation (FIG. 12): antihistamine 1-100 nM.

Series [1] addresses T2, Bovine H1 histamine receptor (Bos taurus, UniProt P30546).
T2 construct: expressed in transfected cells; host or cells: BHK cells, transient transfection with lipofectamine, pcDNA3.3
The experiment in a line: Histamine-mediated intracellular calcium accumulation in BHK cells transiently expressing bovine H1 histamine receptor. The class given is cell-based. Conditions: 10 nM histamine; transfected BHK cells. Here is the method: Bovine H1 histamine receptor was cloned into pcDNA3.3 expression vector and transiently expressed in BHK tissue culture cells using lipofectamine as per Carlson et al. Ten nM histamine was then added to the cells in the presence of various concentrations of rupatadine, tripelennamine, lexipafant, or WEB2086. Intracellular calcium accumulation was monitored in the transfected cells using a commercially available kit (Abcam, Cambridge, Mass.). IC50 values were then determined by identifying the concentration of the antagonist that reduced the maximal PAF-mediated intracellular calcium accumulation by 50%. […] Therefore, as showing in Examples 11 and 12, rupatadine is the only antihistamine that can also block the function of PAFR.

The test system of series [2] is BRD. The experiment in a line: BRD prevention at the feedlot, drug in the feed. The class given is in vivo, calves. Here is the method: An initial study was performed to confirm BRD prevention at the feedlot using an anti-inflammatory composition comprising rupatadine, the oral inhibitor of PAFR. A total of 18 calves were evaluated with the treatment arm receiving a dosage rate of 0.3 mg/kg. Calves were provided the drug in the feed during the first three weeks after entering the feedlot which is within the high risk 6-week period following transfer of the animal. Calves were purchased from a location in Joplin, Mo. having an overall incidence of BRD at >40% which is higher than the standard incidence of about 10% in cattle.
A further study was performed to confirm BRD prevention at the feedlot using the anti-inflammatory composition comprising rupatadine. The same methodology of Example 5 was employed with the modification of the number of calves and the dosage rate. The dosage rate was increased to 0.6 mg/kg. The number of calves were increased to 24 in total. The results are consistent to the first trial, including: 41.7% of treated calves (n=5 of 12) developed BRD whereas 100% of untreated calves (n=12 of 12) developed BRD.
A further study was performed to confirm BRD prevention at the feedlot using the anti-inflammatory composition comprising rupatadine as outlined in Example 5 with the modification of the number of calves (20 total) and the dosage rate. The dosage rate increased to 1.2 mg/kg.

The target of series [3] is T3, PAFR (Bos taurus, UniProt Q9TTY5).
T3 construct: endogenous in cells; host or cells: whole blood cells of cattle (ex vivo)
T3 sequence (Q9TTY5 whole entry): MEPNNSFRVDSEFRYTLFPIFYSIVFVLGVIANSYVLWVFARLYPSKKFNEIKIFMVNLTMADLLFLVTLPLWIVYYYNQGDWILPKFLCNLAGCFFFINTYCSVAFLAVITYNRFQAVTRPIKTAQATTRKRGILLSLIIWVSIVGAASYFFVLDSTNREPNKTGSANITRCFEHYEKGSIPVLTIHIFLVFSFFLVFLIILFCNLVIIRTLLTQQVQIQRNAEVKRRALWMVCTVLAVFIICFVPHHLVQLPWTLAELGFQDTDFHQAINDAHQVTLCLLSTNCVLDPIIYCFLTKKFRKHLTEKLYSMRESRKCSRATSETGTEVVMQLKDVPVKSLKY
The experiment in a line: Stress hormone- and commensal oral bacteria-mediated second messenger accumulation in calf blood cells. The class given is cell-based, cattle. The note with it: 500 nM inhibitor, blood of animals with increased PAFR expression, cortisol 5 ng/mL, norepinephrine 100 pg/mL, 10^6 CFUs/mL bacteria, six hours 37°C. An excerpt: A PAFR inhibitor blocks the stress hormone- and commensal oral bacteria-mediated second messenger accumulation in calf blood cells that have an increase in expression of PAFR. Studies presented in Example 1 and FIG. 1 were repeated with the inclusion of the compositions comprising the anti-inflammatory drug rupatadine according to the invention. Blood was drawn from 10 animals that have an increase in PAFR expression (those in which an RT-PCR amplicon was visible after 10-15 cycles) and 10 animals with “normal” or no PAFR expression (those in which an RT-PCR amplicon was visible after 30-45 cycles).
Approximately 5 mL of whole blood was collected from the jugular or caudal vein of non-transported juvenile and adult cattle. Blood was placed in EDTA tubes, aliquoted, and cortisol (5 ng/mL) and norepinephrine (100 pg/mL) were added to some of the blood. The next day, blood samples were incubated with 0 or 10^6 CFUs/mL of commensal oral bacteria, 0 or 500 nM of the inhibitor, and a second messenger reagent for six hours at 37° C. with gentle rolling. After the six-hour incubation period, blood samples were analyzed for the production of second messengers. Data was standardized based on second messenger production in the presence of vehicle. […] Fifty ng of total RNA was then subjected to semi-quantitative RT-PCR to confirm the PAFR expression status of each animal.

Series [4] is described as follows: Pharmacotherapeutic study, blood levels after oral administration to feedlot calves. The class given is in vivo. The note with it: daily oral doses of 30 mg/animal for 5 days; six calves. As for the experimental part:
A pharmacotherapeutic study was completed to confirm the PAFRi survives the rumen and reaches therapeutic blood and lung concentrations following oral administration to feedlot calves. Six calves were purchased and given daily oral doses of 30 mg/animal of the drug rupatadine for 5 days. Blood was drawn five times on day one and twice per day thereafter to measure the blood levels of rupatadine.

Series [5] concerns BRD. The experiment in a line: BRD prevention in high-risk calves, weekly injections (Example 13). Conditions: after five weeks of weekly subcutaneous 7 mg/kg; BRD(+) calves usually >25%. The class given is in vivo. As for the experimental part: Twenty-five high-risk BRD calves were transported to a new barn and five each were assigned to different treatment groups: no treatment, weekly subcutaneous injections of 7 mg/kg of rupatadine, weekly injections of 1 mg/kg tripelennamine, weekly injections of 10 mg/kg WEB2086, and weekly injections of 1 mg/kg tripelennamine and 10 mg/kg WEB2086. The animals were observed over the next five weeks twice daily for BRD. Any animal who required antibiotics for treating the clinical signs of BRD was classified as having BRD. […] Four of the five (80%, n=4 of 5) animals receiving tripelennamine only developed BRD.
After the five weeks, the rupatadine treated animals were euthanized and the lungs removed and necropsied. Three veterinarians then assessed the lungs for signs of disease, such as abscessation or consolidation. […] Lung pathology in BRD(+) calves is usually >25%, and of the rupatadine treated animals, there was only about 5-10% disease identified by the veterinarians.

Series [6] relates to BRD. The experiment in a line: BRD prevention in high-risk calves, treatment methods of rupatadine (Example 14). The class given is in vivo. As for the experimental part:
In order to test various treatment methods of rupatadine, 25 high-risk calves were transported to a new farm. Seven calves were used as controls, six were given rupatadine as a single oral dose of 1 mg/kg, six were given rupatadine as a single subcutaneous injection of 7 mg/kg, six calves were given weekly subcutaneous injections of 7 mg/kg rupatadine. The animals were observed over the next five weeks twice daily for BRD. Any animal who required antibiotics for treating the clinical signs of BRD was classified as having BRD.
All the calves (100%, n=6 of 6) eventually developed BRD between days three and 31. […] The calf that did develop BRD did so on day 31.

Series [7] deals with PAFR. The experiment in a line: PAFR level in blood of treated calves by qRT-PCR (Example 14). The class given is in vivo. Conditions: weekly depot injection versus control and other rupatadine treatments. As for the experimental part: Blood was extracted from all 25 calves was extracted weekly and the level of PAFR was assayed using qRT-PCR and the theoretical copies of transcript/200 ng of total RNA. […] However, it dropped the most in the weekly depot injection calves during the last three weeks of observations.

T2 sequence (P30546 whole entry): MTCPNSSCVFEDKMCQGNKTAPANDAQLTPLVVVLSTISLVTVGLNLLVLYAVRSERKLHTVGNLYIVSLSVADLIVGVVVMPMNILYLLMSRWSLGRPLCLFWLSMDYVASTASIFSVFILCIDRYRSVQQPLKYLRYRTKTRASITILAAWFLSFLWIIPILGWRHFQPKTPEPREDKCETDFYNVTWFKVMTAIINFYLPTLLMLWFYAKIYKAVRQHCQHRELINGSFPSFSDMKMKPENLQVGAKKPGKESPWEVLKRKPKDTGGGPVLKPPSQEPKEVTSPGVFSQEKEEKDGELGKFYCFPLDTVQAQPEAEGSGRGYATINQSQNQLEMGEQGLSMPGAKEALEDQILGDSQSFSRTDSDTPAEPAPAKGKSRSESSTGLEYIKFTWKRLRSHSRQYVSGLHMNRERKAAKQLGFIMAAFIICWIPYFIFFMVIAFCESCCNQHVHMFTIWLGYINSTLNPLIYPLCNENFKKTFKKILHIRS
T1 sequence (Q9TTY5 whole entry): as the sequence (Q9TTY5 whole entry) above
Experimental for Bovine PAFR: Bovine PAFR was cloned into pcDNA3.3 expression vector and transiently expressed in BHK tissue culture cells using lipofectamine as per Carlson et al., J Biol Chem, 271:23146053 (1996), herein incorporated by reference in its entirety. Ten nM PAF was then added to the cells in the presence of various concentrations of various antagonists: rupatadine, lexipafant (as in Kingsnorth, et al., BJS, 82:1414-20 (1995), herein incorporated in its entirety), and WEB2086 a PAF antagonist which has not been commercialized and/or used in humans to date (as in Casals-Stenzel et al., J of Pharmacolo Experimental Therapeutics, 241:974-81 (1987), herein incorporated in its entirety), as well as tripelennamine, a bovine-approved antihistamine at concentrations ranging between 1-100 nM. Intracellular calcium accumulation was monitored in the transfected cells using a commercially available kit (Abcam, Cambridge). IC50 values were then determined by identifying the concentration of the antagonist that reduced the maximal PAF-mediated intracellular calcium accumulation by 50%.
Various antihistamines were also tested. […] Intracellular calcium accumulation was monitored in the transfected cells using a commercially available kit (Abcam, Cambridge). IC50 values were then determined by identifying the concentration of the antagonist that reduced the maximal PAF-mediated intracellular calcium accumulation by 50%.

Regarding `Cc1nnc2n1-c1sc(CCC(=O)N3CCOCC3)cc1C(c1ccccc1Cl)=NC2` [WEB2086], the “block of bovine PAFR function, PAF-mediated intracellular calcium accumulation (FIG. 11)” value at Bovine PAFR is on record as “blocked”. In series [1], the “block of the function of the H1 histamine receptor, intracellular calcium accumulation (FIG. 13)” value was “fail to black”.
Take `CN(C)CCOC(c1ccccc1)c1ccccc1` [diphenhydramine]: the “block of bovine PAFR function by antihistamines, PAF-mediated intracellular calcium accumulation (FIG. 12)” value at Bovine PAFR was “do not block”.
Regarding `OCCOCCN1CCN(C(c2ccccc2)c2ccc(Cl)cc2)CC1` (stereo not shown) [hydroxyazine], the “block of bovine PAFR function by antihistamines, PAF-mediated intracellular calcium accumulation (FIG. 12)” value at Bovine PAFR is listed as “do not block”.
For the molecule `CCOC(=O)[C@H](CC(C)C)N(C)S(=O)(=O)c1ccc(Cn2c(C)nc3cnccc32)cc1` [lexipafant], the “block of bovine PAFR function, PAF-mediated intracellular calcium accumulation (FIG. 11)” value on Bovine PAFR is reported as “blocked”. The “block of the function of the H1 histamine receptor, intracellular calcium accumulation (FIG. 13)” value in series [1] was “fail to black”.
Consider `CC(CN1c2ccccc2Sc2ccccc21)N(C)C` (stereo not shown) [promethazine], for which the “block of bovine PAFR function by antihistamines, PAF-mediated intracellular calcium accumulation (FIG. 12)” value at Bovine PAFR is “do not block”.
`COc1ccc(CN(CCN(C)C)c2ccccn2)cc1` [pyrilamine]: at Bovine PAFR, the “block of bovine PAFR function by antihistamines, PAF-mediated intracellular calcium accumulation (FIG. 12)” value is recorded as “do not block”.
In the case of `Cc1cncc(CN2CCC(=C3c4ccc(Cl)cc4CCc4cccnc43)CC2)c1` [rupatadine, 8-chloro-11-[1-[(5-methyl-3-pyridyl)methyl]-4-piperidyliden]-6,11-dihydro-5H-benzo[5,6]cyclohepta[1,2-b]pyridine], the “treated calves that developed BRD” value is on record as 50% in the series with BRD [2] (0.3 mg/kg in the feed, first three weeks after entering the feedlot, 8 treated calves, within 5 weeks); 41.7% in the series on BRD [2] (0.6 mg/kg in the feed, n=5 of 12); 33.3% in the series on BRD [2] (1.2 mg/kg in the feed, n=3 of 10). Further, the “block of bovine PAFR function, PAF-mediated intracellular calcium accumulation (FIG. 11)” value at Bovine PAFR was “blocked”. For the same molecule, the “block of bovine PAFR function by antihistamines, PAF-mediated intracellular calcium accumulation (FIG. 12)” value on Bovine PAFR is on record as “able to block PAFR function; also recorded: blocks”. For the same molecule, the “stress hormone- and commensal oral bacteria-mediated second messenger accumulation” value is on record as “blocks” on PAFR [3] and “indistinct from normal or non-expressing samples” on PAFR [3] (listed as PAFRi). The “blood levels of rupatadine (FIG. 9)” value in series [4] is given as “reaches therapeutic concentrations more rapidly than in humans”. In addition, the “lung disease identified by the veterinarians at necropsy” value in the series with BRD [5] is given as 5-10%. In the series on BRD [6] (weekly long-acting injections of 7 mg/kg), the “high risk animals that did not develop BRD” value is “five out of six”. Besides, in the series with BRD [6] (weekly subcutaneous injections of 7 mg/kg, five-week observation, n=6), the “animals that developed BRD” value worked out at 16.7%. Further, the “day on which the calf developed BRD” value in the series on BRD [6] (weekly subcutaneous injections of 7 mg/kg, the one calf that developed BRD) is 31 days. Also, the “PAFR expression over a five-week period” value in the series with PAFR [7] was “greatest decrease in PAFR expression”. Moreover, the “block of the function of the H1 histamine receptor, intracellular calcium accumulation (FIG. 13)” value in series [1] was “able to block”.
As to `CN(C)CCN(Cc1ccccc1)c1ccccn1` [tripelennamine], at Bovine PAFR, the “block of bovine PAFR function, PAF-mediated intracellular calcium accumulation (FIG. 11)” value is “not blocked” and the “block of bovine PAFR function by antihistamines, PAF-mediated intracellular calcium accumulation (FIG. 12)” value was “do not block”. Also, in series [1], the “block of the function of the H1 histamine receptor, intracellular calcium accumulation (FIG. 13)” value was “able to block”.
